Measured values as given in US20260207618A1, “PYRIMIDINE CARBOXAMIDE COMPOUNDS” (Acrivon Therapeutics, Inc., priority 2022, published 2026).

Columns and labels:
[1] = biological target: T1, recombinant human Wee1A kinase (Homo sapiens, UniProt P30291); experiment: LanthaScreen Europium (Eu) Kinase Binding Assay, Wee1A kinase (TR-FRET tracer displacement); details: 30 nM tracer 178, 5 nM Wee1A kinase, 60 minutes at room temperature
T1 construct: full length Wee1A kinase was expressed by baculovirus in insect cells; purchased Invitrogen PV3817; host or cells: insect cells (baculovirus)
T1 sequence (P30291 whole entry): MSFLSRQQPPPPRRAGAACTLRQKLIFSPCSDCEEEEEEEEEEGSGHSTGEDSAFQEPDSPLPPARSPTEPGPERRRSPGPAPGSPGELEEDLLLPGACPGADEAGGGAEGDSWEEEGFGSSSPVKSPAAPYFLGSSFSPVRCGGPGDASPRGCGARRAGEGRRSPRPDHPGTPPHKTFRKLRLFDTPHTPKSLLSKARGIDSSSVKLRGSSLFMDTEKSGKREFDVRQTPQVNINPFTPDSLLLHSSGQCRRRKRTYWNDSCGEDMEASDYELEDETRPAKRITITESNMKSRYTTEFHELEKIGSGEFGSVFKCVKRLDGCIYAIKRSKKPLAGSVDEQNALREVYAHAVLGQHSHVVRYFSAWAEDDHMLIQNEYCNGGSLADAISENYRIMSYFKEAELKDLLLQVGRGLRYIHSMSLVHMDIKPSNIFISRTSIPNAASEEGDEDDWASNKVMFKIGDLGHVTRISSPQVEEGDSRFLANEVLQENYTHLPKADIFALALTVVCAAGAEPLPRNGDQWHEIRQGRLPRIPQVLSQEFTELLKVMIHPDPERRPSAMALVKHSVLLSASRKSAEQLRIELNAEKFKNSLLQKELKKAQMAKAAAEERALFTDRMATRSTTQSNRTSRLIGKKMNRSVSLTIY
Excerpt: We used a LanthaScreen Europium (Eu) Kinase Binding Assay to determine the binding of provided compounds to Wee1A kinase. The assay utilizes an Alexa Fluor 647-labeled ATP competitive kinase tracer that binds to the ATP binding site of a GST-tagged Wee1A kinase, while a europium (Eu) labeled antibody binds to the GST tag. The proximity of fluorescently labeled kinase tracer and europium (Eu) donor fluorophore antibody leads to fluorescence resonance energy transfer (FRET) to the fluorescence label (acceptor) upon excitation of the Eu (donor). Displacement of tracer from the ATP-binding site by a test compound disturbs the proximity between both labels thus lowering the FRET.
This time resolved-FRET binding assay was performed in white 384-well low volume plates (Greiner, cat #784075), at room temperature in kinase buffer A (KBA; Invitrogen cat #PV3189), consisting of 50 mM HEPES-NaOH (pH 7.5), 0.01% Brij-35, 10 mM MgCl2, and 1 mM EGTA. 5 μl of compound (diluted in reaction buffer, to 1% DMSO) were added to various wells in the plate, followed by 5 μl each of recombinant human Wee1A kinase (full length Wee1A kinase was expressed by baculovirus in insect cells using a N-terminal GST tag (MW: 99.1 kDa) (Invitrogen cat #PV3817) and LanthaScreen Eu-anti-GST antibody (Invitrogen, cat #PV5594). After this, 5 μl of kinase tracer 178 (Invitrogen, cat #PV5593) was added to the plate and the plate was incubated for 60 minutes at room temperature. The final assay conditions in each well were: 30 nM tracer 178, 5 nM Wee1A kinase and 2 nM Eu-labeled antibody in total assay volume of 15 μl. An Envision 2104 (Perkin-Elmer) Plate Reader with the following time-resolve fluorescence setting was used for performing LanthaScreen kinase binding assay. • Excitation 320 nm (30 nm bandpass) • Kinase Tracer Emission 665 nm (10 nm bandpass) • LanthaScreen Eu-anti-Tag Antibody Emission 615 nm (10 nm bandpass) • Dichroic Mirror Instrument dependent • Delay Time 100 μs • Integration Time 200 μs
To calculate the emission ratio, the acceptor/tracer emission ([…]) was divided by the antibody/donor emission ([…]) and the average of duplicate measurement was used for calculations. Data plotting, analysis of binding, and curve fitting was done using Excel add-in XLfit version 5.5.0.5 (IDBS, Guildford, United Kingdom).

[2] = system: Cdk1 phosphorylated on tyrosine 15; experiment: High-content imaging of pCdk1 Y15 by immunofluorescence in ACHN cells; format: cell-based; details: Homo sapiens, high-content imaging (IF), 4 h, 7 to 5000 nM, read-out: CDK1 Tyr15 Phosphorylation EC50 (IC50)
Description: ACHN renal cell carcinoma cell line (ATCC) was cultured in Minimum Essential Medium Eagle supplemented with 10% fetal calf serum (Sigma), 1% Penicillin-Streptomycin and 10 mM HEPES buffer (HyClone). Cell cultures were kept in a humidified incubator at 37° C. and 5% CO2. Cells were routinely tested for Mycoplasma contamination.
High-content imaging of ACHN renal cell carcinoma cells was used for quantification of CDK1 phosphorylated on tyrosine 15 by immunofluorescence (“IF”). 20 000 cells per well were seeded in tissue culture treated 96 well plates and treated with compounds at concentrations ranging from 7 to 5000 nM for 4 h. Cells were fixated for 15 minutes in 4% paraformaldehyde solution, washed in PBS and permeabilized using 0.2% Triton X-100. Blocking was performed for 1 h at RT using Blocker FL Fluorescent Blocking Buffer (Thermo Scientific), thereafter cells were incubated with primary antibody (rabbit anti-pCDK1 Y^15, #4539, Cell Signaling Technology) at 4° C. ON. Alexa Fluor Plus 647 labelled goat anti-rabbit (A32733. Thermo Scientific) was used as secondary antibody. After washing in PBS, nuclei were stained with DAPI solution for 10 min at RT, protected from light. Cells were imaged using an ImageXpress Pico automated imaging system and CellReporter Xpress software (Molecular Devices). The percentage cells with nuclear positivity for pCdk1 Y^15 compared to DMSO control was determined for each well and drug dose response curves and EC50 values were calculated and visualized using GraphPad Prism.

SMILES | IC50 [1] | EC50 [2] | Wee1A kinase Binding IC50 [1]
COc1nc(Nc2cnn([C@@H]3CCCNCC3)c2)ncc1C(=O)Nc1c(Cl)cccc1Cl (single isomer, unassigned) [Compound 186] | ≤ 10 nM | > 1000 nM | 
COc1nc(Nc2cnn([C@H]3CCCNCC3)c2)ncc1C(=O)Nc1c(Cl)cccc1Cl (single isomer, unassigned) [Compound 187] | ≤ 10 nM | > 1000 nM | 
COc1nc(Nc2cnn([C@@H]3CCCN(C)CC3)c2)ncc1C(=O)Nc1c(Cl)cccc1Cl (single isomer, unassigned) [Compound 188] | ≤ 10 nM | 100 to 500 nM | 
COc1nc(Nc2ccc(C3CCN(C)CC3)c(C)c2)ncc1C(=O)Nc1ccccc1 [Compound 101, 4-methoxy-2-((3-methyl-4-(1-methylpiperidin-4-yl)phenyl)amino)-N-phenylpyrimidine-5-carboxamide] | 10 to 100 nM | > 1000 nM | 
CN1CCN(c2ccc(Nc3ncc(C(=O)Nc4c(Cl)cccc4Cl)c(OC4CC4)n3)cc2)CC1 [Compound 102, 4-cyclopropoxy-N-(2,6-dichlorophenyl)-2-((4-(4-methylpiperazin-1-yl)phenyl)amino)pyrimidine-5-carboxamide] | ≤ 10 nM | 100 to 500 nM | 
CN1CCN(c2ccc(Nc3ncc(C(=O)Nc4c(Cl)cccc4Cl)c(OCC(F)(F)F)n3)cc2)CC1 [Compound 103, N-(2,6-dichlorophenyl)-2-{[4-(4-methylpiperazin-1-yl)phenyl]amino}-4-(2,2,2-trifluoroethoxy)pyrimidine-5-carboxamide] | 10 to 100 nM |  | 
Cc1cc(Nc2ncc(C(=O)Nc3c(Cl)cccc3Cl)c(OCC(F)(F)F)n2)ccc1C1CCN(C)CC1 [Compound 104, N-(2,6-dichlorophenyl)-2-{[3-methyl-4-(1-methylpiperidin-4-yl)phenyl]amino}-4-(2,2,2-trifluoroethoxy)pyrimidine-5-carboxamide] | ≤ 10 nM | 100 to 500 nM | 
CN1CCN(c2ccc(Nc3ncc(C(=O)Nc4c(Cl)cccc4Cl)c(OCC4CCCO4)n3)cc2)CC1 (stereo not shown) [Compound 105] | ≤ 10 nM | > 1000 nM | 
COc1nc(Nc2ccc(C3CCN(C)CC3)c(C)c2)ncc1C(=O)Nc1c(C)cccc1Cl [Compound 106, N-(2-chloro-6-methylphenyl)-4-methoxy-2-((3-methyl-4-(1-methylpiperidin-4-yl)phenyl)amino)pyrimidine-5-carboxamide] | ≤ 10 nM | 100 to 500 nM | 
COc1nc(Nc2ccc(C3CCN(C)CC3)c(C)c2)ncc1C(=O)Nc1ccccc1Br [Compound 107, N-(2-bromophenyl)-4-methoxy-2-((3-methyl-4-(1-methylpiperidin-4-yl)phenyl)amino)pyrimidine-5-carboxamide] | ≤ 10 nM | > 1000 nM | 
COc1nc(Nc2ccc(C3CCN(C)CC3)c(C)c2)ncc1C(=O)Nc1ccccc1Cl [Compound 109, N-(2-chlorophenyl)-4-methoxy-2-((3-methyl-4-(1-methylpiperidin-4-yl)phenyl)amino)pyrimidine-5-carboxamide] | 10 to 100 nM |  | 
COc1nc(Nc2ccc(C3CCN(C)CC3)c(C)c2)ncc1C(=O)Nc1c(C)ccnc1C [Compound 112, N-(2,4-dimethylpyridin-3-yl)-4-methoxy-2-{[3-methyl-4-(1-methylpiperidin-4-yl)phenyl]amino}pyrimidine-5-carboxamide] | 10 to 100 nM |  | 
COc1nc(Nc2ccc(C3CCN(C)CC3)c(C)c2)ncc1C(=O)Nc1ccccc1C#N [Compound 115, N-(2-cyanophenyl)-4-methoxy-2-((3-methyl-4-(1-methylpiperidin-4-yl)phenyl)amino)pyrimidine-5-carboxamide] | 10 to 100 nM |  | 
COc1nc(Nc2ccc(C3CCN(C)CC3)c(C)c2)ncc1C(=O)Nc1c(C)ccnc1Cl [Compound 117, N-(2-chloro-4-methylpyridin-3-yl)-4-methoxy-2-{[3-methyl-4-(1-methylpiperidin-4-yl)phenyl]amino}pyrimidine-5-carboxamide] | 10 to 100 nM |  | 
COc1nc(Nc2ccc(C3CCN(C)CC3)c(C)c2)ncc1C(=O)Nc1cccc(O)c1 [Compound 118] | 10 to 100 nM |  | 
CN(C)CCCOc1nc(Nc2ccc(N3CCN(C)CC3)cc2)ncc1C(=O)Nc1c(Cl)cccc1Cl [Compound 124, N-(2,6-dichlorophenyl)-4-(3-(dimethylamino)propoxy)-2-((4-(4-methylpiperazin-1-yl)phenyl)amino)pyrimidine-5-carboxamide] |  |  | C (IC50 greater than 100 nM but less than or equal to 5.00 nM)
C#Cc1ccccc1NC(=O)c1cnc(Nc2ccc(C3CCN(C)CC3)c(C)c2)nc1OC [Compound 126, N-(2-ethynylphenyl)-4-methoxy-2-((3-methyl-4-(1-methylpiperidin-4-yl)phenyl)amino)pyrimidine-5-carboxamide] | 10 to 100 nM |  | 
COc1nc(Nc2ccc(C3CCN(C)CC3)c(C)c2)ncc1C(=O)Nc1cc(C#N)ccc1Cl [Compound 131, N-(2-chloro-5-cyanophenyl)-4-methoxy-2-((3-methyl-4-(1-methylpiperidin-4-yl)phenyl)amino)pyrimidine-5-carboxamide] |  |  | C (IC50 greater than 100 nM but less than or equal to 5.00 nM)
COc1nc(Nc2ccc(C3CCN(C)CC3)c(C)c2)ncc1C(=O)Nc1cnccc1Cl [Compound 139, N-(4-chloropyridin-3-yl)-4-methoxy-2-((3-methyl-4-(1-methylpiperidin-4-yl)phenyl)amino)pyrimidine-5-carboxamide] | 10 to 100 nM |  | 
COc1nc(Nc2ccc(OCCN3CCOCC3)c(C)c2)ncc1C(=O)Nc1c(Cl)ccc(O)c1C [Compound 151, N-(6-chloro-3-hydroxy-2-methylphenyl)-4-methoxy-2-((3-methyl-4-(2-morpholinoethoxy)phenyl)amino)pyrimidine-5-carboxamide] |  | > 1000 nM | 
COc1nc(Nc2cnn(C[C@H]3CCCN3)c2)ncc1C(=O)Nc1c(Cl)cccc1Cl [Compound 159] | 10 to 100 nM |  | 
COc1nc(Nc2cnn(C[C@@H]3CCCN3)c2)ncc1C(=O)Nc1c(Cl)cccc1Cl [Compound 160] | 10 to 100 nM |  | 
COc1nc(Nc2ccc(C(=O)N3CCN(C)CC3)c(C)c2)ncc1C(=O)Nc1c(Cl)cccc1Cl [Compound 168] | 10 to 100 nM |  | 
COc1nc(Nc2ccc(C3CCN(C)CC3)c(C)c2)ncc1C(=O)Nc1cc(NC(C)=O)ccc1C [Compound 169] |  |  | C (IC50 greater than 100 nM but less than or equal to 5.00 nM)
COc1nc(Nc2ccc(C3CCN(C)CC3)c(C)c2)ncc1C(=O)Nc1cc([N+](=O)[O-])ccc1C [Compound 170] |  |  | C (IC50 greater than 100 nM but less than or equal to 5.00 nM)
COc1nc(Nc2ccc(C3CCN(C)CC3)nc2)ncc1C(=O)Nc1c(Cl)cccc1Cl [Compound 183, N-2,6-dichlorophenyl-4-methoxy-2-[6-(1-methyl-4-piperidyl)-3-pyridylamino]-5-pyrimidinecarboxamide] | 10 to 100 nM |  | 
COc1nc(Nc2ccc(-c3ccn(C)c3)c(C)c2)ncc1C(=O)Nc1c(Cl)cccc1Br [Compound 191, N-(2-bromo-6-chlorophenyl)-4-methoxy-2-((3-methyl-4-(1-methyl-1H-pyrrol-3-yl)phenyl)amino)pyrimidine-5-carboxamide] | 10 to 100 nM |  | 
COc1nc(Nc2ccc([C@H]3CCCN(C)CC3)c(C)c2)ncc1C(=O)Nc1c(Cl)cccc1Br [Compound 208] | ≤ 10 nM |  | 
